pIC50: −log10 of the molar value.
What follows are compounds tested against T1, Ketohexokinase (KHK) (Homo sapiens, UniProt P50053) (assay: Activity measurement of ketohexokinase inhibitor in vitro (Transcreener ADP2 TR-FRET Red Assay)). Details: purified His-tagged KHK expressed in E. coli; 30 min preincubation with inhibitor, 15 min reaction with ATP and fructose; ADP by TR-FRET (665/615 ratio).
T1 construct: His tag; made in house; host or cells: E. coli
T1 sequence (P50053 1-298): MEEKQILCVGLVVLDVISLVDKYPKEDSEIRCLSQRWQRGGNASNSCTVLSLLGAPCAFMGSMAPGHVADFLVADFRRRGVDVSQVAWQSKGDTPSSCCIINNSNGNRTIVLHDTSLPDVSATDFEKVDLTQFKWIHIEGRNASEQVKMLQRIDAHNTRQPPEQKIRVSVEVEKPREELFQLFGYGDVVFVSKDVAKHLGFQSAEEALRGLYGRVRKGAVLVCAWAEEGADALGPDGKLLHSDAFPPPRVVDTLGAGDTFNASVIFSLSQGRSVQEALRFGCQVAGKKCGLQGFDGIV
Assay type: biochemical
Protocol: Ketohexokinase (KHK) was expressed in E. coli, and was purified using His tag. In order to measure the activity of the purified KHK, Transcreener ADP2 TR-FRET Red Assay kit of BellBrook Labs was used. A method of measuring the amount of ADP produced using TR-FRET after reacting a solution including appropriate concentrations of a KHK protein, ATP, and fructose for 15 minutes, was used. In order to observe the activity of a ketohexokinase (KHK) inhibitor, ketohexokinase (KHK) and an inhibitor with an appropriate concentration were reacted first for 30 minutes, and then, reacted with a solution include a substrate of ketohexokinase (KHK) for 15 minutes. Then, reaction for TR-FRET was conducted for 1 hour, and fluorescence was measured using Envision apparatus of PerkinElmer Co. The predetermined value of Envision apparatus was determined according to the optimization process of TR-FRET published by BellBrook Lab. The resultant value for each concentration of the ketohexokinase (KHK) inhibitor is determined by a ratio of 665 nm wavelength and 615 nm wavelength. IC50 is analyzed by measuring the 665/615 ratio value with respect to the concentration of each inhibitor and using a statistics software (Prizm). IC50 was represented by the concentration of the inhibitor, showing 50% of the maximum inhibition activity by the inhibitor.

| Compound | pIC50 |
| --- | --- |
| C[C@H]1CCN1c1nc(N2C[C@H]3C[C@@H](C2)[C@@H]3CC(=O)O)cc(C(F)(F)F)n1 [Example 2, 2-((1R,5S,6S)-3-(2-((S)-2-methylazetidine-1-yl)-6-(trifluoromethyl)pyrimidine-4-yl)-3-azabicyclo[3,1,1]heptane-6-yl)acetic Acid] | ≥ 4.67 |
| C[C@H]1CCN1c1nc(N2C[C@H]3C[C@@H](C2)[C@H]3CC(=O)O)cc(C(F)(F)F)n1 [Example 1, 2-((1R,5S,6R)-3-(2-((S)-2-methylazetidine-1-yl)-6-(trifluoromethyl)pyrimidine-4-yl)-3-azabicyclo[3,1,1]heptane-6-yl)acetic Acid] | ≤ 6.00 |
| N#Cc1c(C(F)(F)F)cc(N2C[C@H]3C[C@@H](C2)[C@@H]3CC(=O)O)nc1N1CCCC1 [Example 5, 2-((1R,5S,6R)-3-(5-cyano-6-(pyrrolidine-1-yl)-4-(trifluoromethyl)pyridine-2-yl)-3-azabicyclo[3,1,1]heptane-6-yl)acetic Acid] | ≥ 4.67 |

More lines, now with the values ahead:

| pIC50 | Compound |
| --- | --- |
| ≥ 4.67 | C[C@H]1CCN1c1nc(N2C[C@H]3C[C@@H](C2)[C@@H]3CC(=O)O)cc(C(F)(F)F)c1C#N [Example 4, 2-((1R,5S,6S)-3-(5-cyano-6-((S)-2-methylazetidine-1-yl)-4-(trifluoromethyl)pyridine-2-yl)-3-azabicyclo[3,1,1]heptane-6-yl)acetic Acid] |
| ≤ 6.00 | C[C@H]1CCN1c1nc(N2C[C@H]3C[C@@H](C2)[C@H]3CC(=O)O)cc(C(F)(F)F)c1C#N [Example 3, 2-((1R,5S,6R)-3-(5-cyano-6-((S)-2-methylazetidine-1-yl)-4-(trifluoromethyl)pyridine-2-yl)-3-azabicyclo[3,1,1]heptane-6-yl)acetic Acid] |

From patent US12122766B2, “3-azabicyclo[3,1,1]heptane derivative and pharmaceutical composition including same” (LG CHEM, LTD., priority 2018, dated 2024)
